Data: US11529359B2, “Use of GABAA receptor modulators for treatment of itch” (UNIVERSITÄT ZÜRICH, priority 2016, dated 2022)

Target: T1, α1 GABAARs (Homo sapiens, UniProt P14867+P18507)
T1 construct: expressed in transfected cells; host or cells: HEK293 cells (ATCC), transient transfection
Test: GABA-evoked currents, recombinant GABAARs in HEK293 cells (α1)
Type: cell-based
Conditions: HEK293 cells transiently transfected
From the text: HEK293 cells were transfected using lipofectamine LTX (Dugue, G. P., et al. Neuron, 2009, 61, 126-139). To ensure expression of the γ2 subunit (required for modulation of GABAARs by BDZs) in all recorded cells, the inventors transfected cells with a plasmid expressing the γ2 subunit plus eGFP from an IRES, and only selected eGFP-positive cells for recordings. The transfection mixture contained (in μg): 1 α1, 1 β2, 3 γ2/eGFP (used as a marker of successful transfection) or 1 αx, 1 β3, 3 γ2/eGFP in case of α2, α3, or α5GABAARs. Recordings were made 18-36 hrs after transfection. Whole-cell patch-clamp recordings of GABA-evoked currents were made at room temperature (20-24° C.) and at a holding potential of −60 mV. Recording electrodes were filled with solution containing (in mM): 120 CsCl, 10 EGTA, 10 HEPES (pH 7.40), 4 MgCl2, 0.5 GTP and 2 ATP. The external solution contained (in mM): 150 NaCl, 10 KCl, 2.0 CaCl2, 1.0 MgCl2, 10 HEPES (pH 7.4), and 10 glucose. GABA was applied to the recorded cell using a manually controlled pulse (4-6 s) of a low sub-saturating GABA concentration (ECS). ECs values of GABA were determined for all subunit combinations analyzed. […] Imax was determined as the average maximal current elicited by a concentration of 1 mM GABA. […]

T1 sequence (P14867 28-456): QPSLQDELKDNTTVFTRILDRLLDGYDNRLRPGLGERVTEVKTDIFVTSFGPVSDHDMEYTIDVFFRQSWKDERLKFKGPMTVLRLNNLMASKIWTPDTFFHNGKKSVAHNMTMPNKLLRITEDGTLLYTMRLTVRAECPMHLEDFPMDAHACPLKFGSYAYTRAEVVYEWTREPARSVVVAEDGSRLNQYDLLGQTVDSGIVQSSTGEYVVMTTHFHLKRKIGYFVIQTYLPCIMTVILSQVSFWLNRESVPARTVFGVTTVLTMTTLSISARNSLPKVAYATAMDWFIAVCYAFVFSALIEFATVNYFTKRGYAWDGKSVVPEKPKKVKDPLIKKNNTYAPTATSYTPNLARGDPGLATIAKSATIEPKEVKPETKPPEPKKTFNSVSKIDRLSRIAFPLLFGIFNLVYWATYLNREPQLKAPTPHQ
T1 sequence (P47870 25-512 partner limits assumed): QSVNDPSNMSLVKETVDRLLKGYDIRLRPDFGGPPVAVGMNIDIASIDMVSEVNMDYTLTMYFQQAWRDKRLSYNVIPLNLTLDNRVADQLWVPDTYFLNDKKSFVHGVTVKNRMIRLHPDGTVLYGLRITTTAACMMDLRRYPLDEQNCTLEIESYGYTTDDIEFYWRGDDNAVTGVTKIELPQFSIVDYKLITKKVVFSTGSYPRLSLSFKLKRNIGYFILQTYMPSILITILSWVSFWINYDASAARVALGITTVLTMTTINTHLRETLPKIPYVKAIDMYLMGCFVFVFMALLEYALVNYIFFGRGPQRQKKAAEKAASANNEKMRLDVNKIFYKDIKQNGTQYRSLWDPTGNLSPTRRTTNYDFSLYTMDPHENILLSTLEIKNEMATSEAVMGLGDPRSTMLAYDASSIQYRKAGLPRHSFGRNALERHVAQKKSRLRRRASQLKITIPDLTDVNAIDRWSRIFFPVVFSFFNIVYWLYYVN
T1 sequence (P18507 40-467 limits assumed): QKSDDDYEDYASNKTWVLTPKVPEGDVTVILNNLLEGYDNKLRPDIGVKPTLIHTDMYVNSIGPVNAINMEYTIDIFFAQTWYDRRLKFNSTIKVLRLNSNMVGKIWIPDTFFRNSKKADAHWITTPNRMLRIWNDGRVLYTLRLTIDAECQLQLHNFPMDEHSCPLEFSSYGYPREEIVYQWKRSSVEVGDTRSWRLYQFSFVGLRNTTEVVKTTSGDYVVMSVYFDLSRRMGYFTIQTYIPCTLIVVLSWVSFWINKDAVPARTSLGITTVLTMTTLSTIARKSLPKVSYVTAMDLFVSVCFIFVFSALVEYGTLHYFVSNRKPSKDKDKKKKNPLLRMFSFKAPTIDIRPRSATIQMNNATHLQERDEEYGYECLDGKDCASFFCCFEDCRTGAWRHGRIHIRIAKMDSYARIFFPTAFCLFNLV

## CC(C)(O)c1cnn2c(-c3ccc(F)c(-c4c(F)cccc4C#N)c3)cnc2n1 [TPA023B, 6,2′-difluoro-5′-[3-(1-hydroxy-1-methylethyl)imidazo[1,2-b][1,2,4]triazin-7-yl]biphenyl-2-carbonitrile]
  potentiation of GABA-induced currents: did not potentiate GABA-induced currents
